In patent EP0747346B1, “N-acyl-2 aryl cyclopropylmethylamine derivatives as melatonergics” (BRISTOL-MYERS SQUIBB COMPANY, priority 1995, dated 1996) one finds IC50 data, which are given here for 35 compounds.

Bounds are passed on as bounds.

The target of one experiment is T1, human ML1A (Homo sapiens, UniProt P48039).
T1 construct: expressed in transfected cells; host or cells: COS-1 cells, transient transfection (DEAE-dextran) with pcDNAI; membrane homogenates
T1 sequence (P48039 whole entry): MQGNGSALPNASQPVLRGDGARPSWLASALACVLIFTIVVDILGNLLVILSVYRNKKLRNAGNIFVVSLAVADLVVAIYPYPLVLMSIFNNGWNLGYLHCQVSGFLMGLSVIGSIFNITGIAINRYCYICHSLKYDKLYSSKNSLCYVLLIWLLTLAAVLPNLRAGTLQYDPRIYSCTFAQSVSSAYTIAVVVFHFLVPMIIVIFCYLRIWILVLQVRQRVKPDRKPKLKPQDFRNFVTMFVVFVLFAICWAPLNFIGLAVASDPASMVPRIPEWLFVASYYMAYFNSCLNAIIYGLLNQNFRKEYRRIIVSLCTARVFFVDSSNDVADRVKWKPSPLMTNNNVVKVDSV
The experiment in a line: Measurement of melatonergic binding: displacement of 2-[125I]-iodomelatonin from membranes of COS-1 cells transfected with human ML1A cDNA. The settings on record: Binding affinity (IC50) at the human melatonin receptor, Table 5: displacement of 2-[125I]-Iodomelatonin; Formula I compounds with R1 and R = H, G = methylene. On the procedure:
Example 145 (Measurement of Melatonergic Binding)
The melatonergic binding of the compounds of Formula I was determined by a modification of the method of Reppert, S. M. et al. (Neuron, Volume 13, pages 1177-1185, 1994). […] The reagents, membranes, and other parameters used in the assay are described below: Reagents: • (a) 50 mM Tris buffer containing 12.5 mM MgCl2, and 2 mM EDTA (pH 7.4 at 37 °C). • (b) Wash buffer: 20 mM Tris base containing 2 mM MgCl2 (pH 7.4 at room temperature). • (c) 6-Chloromelatonin (10^-5 M final concentration). • (d) 2-[^125I]-Iodomelatonin (100 pM final concentration). (Source: NEN) Membrane preparation: The cDNA (human ML1A) in pcDNAI was introduced into COS-1 cells by the DEAE-dextran method. Three days later, after media removal, the plates were washed with buffered saline; the cells removed using Hank's balanced salt solution and pelleted. The supernant was discarded and the pellets frozen. For membrane homogenates, the pellets were thawed and resuspended in TME buffer, Tris base, MgCl2, EDTA (pH 7.4 at 37 °C), and supplemented with aprotinin, leupeptin, and phenylmethylsulfonyl fluoride. The cells were homogenized and centrifuged; the resulting pellet resuspended in TME and frozen. At assay, the small aliquot was thawed on ice and resuspended in TME buffer. Incubation: 37 °C for 1 hour. Reaction is terminated by filtration.
Turning to `CCCC(=O)NC[C@@H]1C[C@H]1c1cccc(OC(C)C)c1` (racemic) [Example 8, (trans)-N-[[2-[3-(Methylethoxy)phenyl]cyclopropyl]methyl] butanamide], the IC50 lay in the range of 40 to 250 nM.
In the case of `CCCC(=O)NC[C@@H]1C[C@H]1c1cccc(F)c1` (racemic) [Example 44], the half-maximal inhibitory concentration (IC50) fell in the range of 40 to 250 nM.
`CCCC(=O)NC[C@@H]1C[C@H]1c1cccc(OC(F)(F)F)c1` (single isomer, unassigned) [Example 64] came in with an IC50 of 5 to 40 nM.
Turning to `CCCC(=O)NC[C@@H]1C[C@H]1c1cc(F)ccc1Br` (single isomer, unassigned) [Example 66], the IC50 fell in the range of 5 to 40 nM.
`CCCC(=O)NC[C@@H]1C[C@H]1c1ccc(I)c(OC(F)(F)F)c1` (single isomer, unassigned) [Example 69] yielded an IC50 of 5 to 40 nM.
Regarding `CCCC(=O)NC[C@@H]1C[C@H]1c1cc(F)ccc1I` (single isomer, unassigned) [Example 70], the IC50 was in the range of 40 to 250 nM.
On to `CCCC(=O)NC[C@@H]1C[C@H]1c1ccc(I)c(F)c1` (single isomer, unassigned) [Example 71, (-)-(trans)-N-[[2-(3-Fluoro-4-iodophenyl)cycloprop-1-yl]methyl] butanamide], for which the half-inhibitory concentration (IC50) lay in the range of 40 to 250 nM.
As for `CCCC(=O)NC[C@@H]1C[C@H]1c1cccc(O)c1` (single isomer, unassigned) [Example 79], the half-inhibitory concentration (IC50) lay within 40 to 250 nM.
Still for that read-out and setting: then `CCCC(=O)NC[C@@H]1C[C@H]1c1cccc(C(F)(F)C(F)(F)F)c1` (single isomer, unassigned) [Example 89], with 40 to 250 nM.

Staying with this experiment, now noted: Binding affinity (IC50) at the human melatonin receptor, Table 6: displacement of 2-[125I]-Iodomelatonin; Formula I compounds with X = OCH3, Y and Z = H, R1 = H.
As to `CCCC(=O)NC[C@H]1[C@H](c2cccc(OC)c2)C1(F)F` (racemic) [Example 12, (±)-(trans)-[2,2-Difluoro-3-(3-methoxyphenyl)-cyclopropylmethyl] butanamide], the IC50 was less than 5 nM.
The compound `CCCC(=O)NC[C@H]1[C@H](c2cccc(OC)c2)C1(C)C` (racemic) [Example 17, (trans)-N-[[3-(3-methoxyphenyl)-2,2-dimethyl-1-cyclopropyl]methyl]butanamide] had an IC50 of 250 to 600 nM.
The compound `CCCC(=O)NC(C)[C@@H]1C[C@H]1c1cccc(OC)c1` (single isomer, unassigned) [Example 136] gave an IC50 of 5 to 40 nM.
`CCCC(=O)NC(C)[C@@H]1C[C@H]1c1cccc(OC)c1` (single isomer, unassigned; (-)) [Example 14, (-)-(trans)-N-[1-[2-(3-Methoxyphenyl)cyclopropyl]ethyl] butanamide] showed an IC50 of 40 to 250 nM.

The same experiment, now with this note: Table 4 (continued): displacement of 2-[125I]-Iodomelatonin; Formula I compounds with X = OCH3, R = H, G = methylene.
As to `CCCC(=O)NC[C@@H]1C[C@H]1c1ccc(Cl)c(OC)c1` (racemic) [Example 27, (trans)-N-[[2-(4-Chloro-3-methoxyphenyl)cyclopropyl]methyl] butanamide], the IC50 is less than 5 nM.
Regarding `COc1cccc([C@@H]2C[C@H]2CNC(=O)CCCCl)c1` (single isomer, unassigned) [Example 35], the IC50 was in the range of 5 to 40 nM.
`COc1cccc([C@@H]2C[C@H]2CNC(=O)C2CCCC2)c1` (single isomer, unassigned) [Example 37]: the IC50 was in the range of 250 to 600 nM.
Take `COc1cccc([C@@H]2C[C@H]2CNC(=O)CC(F)(F)F)c1` (single isomer, unassigned) [Example 42, (-)-(trans)-3,3,3-Trifluor-N-[[2-(3-methoxyphenyl)cycloprop-1-yl]methyl] propanamide]: the IC50 was less than 5 nM.
`CCCC(=O)NC[C@@H]1C[C@H]1c1cc(OC)ccc1I` [Example 32, (-)-(trans)-N-[[2-(2-Iodo-5-methoxyphenyl)cyclopropyl]methyl] butanamide] displayed an IC50 of less than 5 nM.
`CCCC(=O)NC[C@@H]1C[C@H]1c1ccc(I)c(OC)c1` [Example 33, (-)-(trans)-N-[[2-(4-Iodo-3-methoxyphenyl)cycloprop-1-yl]methyl] butanamide] came in with a half-maximal inhibitory concentration (IC50) of 5 to 40 nM.
With `CCCC(=O)NC[C@@H]1C[C@H]1c1cc(OC)ccc1-c1ccc(C(F)(F)F)cc1` [Example 34, (-)-(trans)-N-[[2-[4-Methoxy-4'-(trifluoromethyl) [1,1'-biphenyl]-2yl]cycloprop-1-yl]methyl] butanamide], the half-inhibitory concentration (IC50) lay within 5 to 40 nM.
The compound `COc1cccc([C@@H]2C[C@H]2CNC(=O)C2CC2)c1` [Example 36, (-)-(trans)-N-[[2-(3-Methoxyphenyl)cycloprop-1-yl]methyl]cyclopropane carboxamide] registered a 50% inhibitory concentration (IC50) of less than 5 nM.
For the compound `CNC(=O)NC[C@@H]1C[C@H]1c1cccc(OC)c1` [Example 39, (-)-(trans)-N-[[2-(3-Methoxyphenyl)cycloprop-1-yl]methyl]-N'-methyl urea], the IC50 is less than 5 nM.
The same measure, in the same setting: then `COc1cccc([C@@H]2C[C@H]2CNC(C)=O)c1` [Example 41, (-)-(trans)-N-[[2-(3-Methoxyphenyl)cycloprop-1-yl]methyl] acetamide], with less than 5 nM.

Still in this experiment, the particulars now being: displacement of 2-[125I]-Iodomelatonin (100 pM); COS-1 membranes, human ML1A; 37 °C for 1 hour.
In turn, `CCCC(=O)NC[C@@H]1C[C@H]1c1cccc(OCC2CC2c2cccc(OC)c2)c1` (mixture of isomers) [Example 132, (trans)-N-[[2-[3-[[2-(3-Methoxyphenyl)cycloprop-1-yl]methoxy]phenyl]cycloprop-1-yl]methyl] butanamide] displayed an IC50 of less than 5 nM.
`CCCC(=O)NC[C@@H]1C[C@H]1c1cc(OC)c(Br)cc1Br` (relative stereo) [Example 5, (trans)-N-[[2-(2,4-Dibromo-5-methoxyphenyl)cyclopropyl]methyl] butanamide] gave a concentration for half-maximal inhibition (IC50) of less than 5 nM.
Compound `CCCC(=O)NC[C@@H]1C[C@H]1c1cc(OC)ccc1NC(=O)CCC` (relative stereo) [Example 13, (trans)-N-[[2-(2-Butyrylamino-5-methoxyphenyl)cyclopropyl]methyl] butanamide] yielded an IC50 of 250 to 600 nM.
`CCCC(=O)NC[C@@H]1C[C@H]1c1cccc(OC)c1` (single isomer, unassigned) [Example 3a, (+)-(trans)-N-[[2-(3-Methoxyphenyl)cyclopropyl]methyl]butanamide] showed a half-maximal inhibitory concentration (IC50) of 5 to 40 nM.
As to `CCCC(=O)NC[C@@H]1C[C@H]1c1cc(OC)ccc1C#Cc1ccccc1` (single isomer, unassigned) [Example 9a], the half-inhibitory concentration (IC50) was less than 5 nM.
`CCCC(=O)NC[C@@H]1C[C@H]1c1cc(OC)ccc1CCc1ccccc1` (single isomer, unassigned) [Example 9b] came in with an IC50 of 5 to 40 nM.
On the same count and under the same terms, in the case of `CCCC(=O)NC[C@@H]1C[C@H]1c1cccc(OC)c1` [Example 3b, (-)-(trans)-N-[[2-(3-Methoxyphenyl)cyclopropyl]methyl] butanamide] it was less than 5 nM.
In turn, `CCCC(=O)NC[C@@H]1C[C@H]1c1cc(OC)ccc1C#N` [Example 10, (-)-(trans)-N-[[2-(2-Cyano-5-methoxyphenyl]cyclopropyl]methyl] butanamide] gave a concentration for half-maximal inhibition (IC50) of 5 to 40 nM.
`CCCC(=O)NC[C@@H]1C[C@H]1c1cc(OC)ccc1-c1ccccc1` [Example 11, (-)-(trans)-N-[[2-(2-Phenyl-5-methoxyphenyl]cyclopropyl]methyl] butanamide] came in with a 50% inhibitory concentration (IC50) of 5 to 40 nM.
With `COc1cccc([C@@H]2C[C@H]2CNC(=O)C(C)C)c1` [Example 22, (-)-(trans)-N-[[2-(3-Methoxyphenyl)cyclopropyl]methyl]-2-methylpropanamide], the 50% inhibitory concentration (IC50) lay in the range of 5 to 40 nM.
Same read-out and setting: then `CCCC(=O)NC[C@@H]1C[C@H]1c1cccc(OCC2C(c3cccc(OC)c3)C2(C)C)c1` (some centres unmarked) [Example 131], with 5 to 40 nM.

The same experiment, now with this note: read-out: Binding affinity (IC50) at the human melatonin receptor; Table 5: displacement of 2-[125I]-Iodomelatonin; Formula I compounds with R1 and R = H, G = methylene.
For “(trans)-N-[2-[(3-Trideuteromethoxyphenyl)cycloprop-1-yl]methyl] butanamide [Example 111]”, the 50% inhibitory concentration (IC50) is less than 5 nM.
